The results in this text go back to US7456018B2, “Human hepatoma lines, methods for obtaining same and uses thereof” (priority 2001, dated 2008).

Entries after “also recorded” stand apart in the source; their conditions may differ. Bounds are passed on as bounds.

The test system of data set [1] is HepaRG cells. The data set can be described thus: Biliary/hepatocyte route differentiation of HepaRG cells, in situ marking (indirect immunohistochemistry). As to Albumin expression: key: −/+: weakly positive; +: positive; ++: highly positive. As to Cytokeratin 7 expression: key: −/+: weakly positive; +: positive; ++: highly positive. As to α1 chain expression: key: −/+: weakly positive; +: positive; ++: highly positive. As to α6 chain expression: key: −/+: weakly positive; +: positive; ++: highly positive. As to γ-glutamyl transferase expression: key: −/+: weakly positive; +: positive; ++: highly positive. The following applies: HepaRG cells treated with 2% DMSO or 3.75 mM sodium butyrate. Also on record: Cytokeratin 19 expression: key: −/+: weakly positive; +: positive; ++: highly positive. The format is cell-based, human. As to the method: HepaRG cells were separated, diluted to ⅕ in Williams' E medium to which 5 μg/ml of insulin, 100 U/ml of penicillin, 100 μg/ml of streptomycin, 510-5M of hydrocortisone hemisuccinate, 2 mM of L-glutamine and 10% FCS were added, then redistributed into wells with a plastic support. Four culture conditions were produced: • HepaRG cells were treated with 3.75 mM sodium butyrate in the maintenance medium as from the day following subculture according to the protocol described by Blouin et al. (1995, Specialization switch in differentiating embryonic rat liver progenitor cells in response to sodium butyrate, Exp. cell res., 217: 22-33). The medium is then replenished every 2-3 days, • the HepaRG cells were treated 5 days after subculture by 3.75 mM sodium butyrate or 2% DMSO. The medium was replenished every day for 5 days, • the HepaRG cells were treated at strong confluence by 3.75 mM sodium butyrate; the medium was replenished every 2-3 days, • the HepaRG cells were seeded on a plastic support or monolayer of rat primitive biliary epithelial cells in MEM alpha medium complemented with L-glutamine (2 mM), i-inositol (0.2 mM), folic acid ([…]), β-mercaptoethanol (10^−4 M), transferrin 200 μg/ml, 12.5% FCS and 12.5% horse serum. In certain situations, cytokines such as LIF, IL-3, SCF or G-CSF were added to the medium. This medium was replenished every 2-3 days. Indirect Immunohistochemistry
The cells after washing with PBS are fixed by a solution of 4% paraformaldehyde buffered by 0.1 M sodium cacodylate at pH 7.4 for 20 minutes at 4° C. They are then preserved in a PBS buffer until the time of the analysis.
The specific sites are saturated for 45 minutes with PBS containing 10% FCS. The samples are then treated with primary antibodies for an hour at ordinary temperature in PBS containing 0.05% saponin. After 3 washings in PBS containing 0.05% saponin, the samples are incubated with the second antibody coupled to peroxydase.
The morphological modifications observed in the presence of sodium butyrate are correlated to phenotypical changes (Blouin et al. 1995). We used four markers of differentiation towards the biliary route, γ-glutamyl transferase, the α6 chain of integrins and the cytokeratins 7 and 19 which normally disappear when the cells are directed towards the hepatocyte route. For differentiation towards the hepatocyte route, we looked for an increase in the expression of albumin and a reduction in the expression of the al chain of the integrins.

Data set [2] has as its system HBV. The data set can be described thus: Infectability of HepaRG cells by HBV according to culture/differentiation medium, HbsAg secretion. The format is cell-based, hepatitis B virus. As to the method: The cells used for the infection are cells having been cultured according to the conditions defined in Example 1 (permanent presence of 5.10^−5M of hydrocortisone hemisuccinate) and having been maintained for a week at confluence, then for 2 weeks in the same medium with 2% of DMSO added.
These cells are incubated with the infectious source, diluted 10 times, in the culture medium with 4% of PEG 8000 (Sigma) added, for 20 hours at 37° C. The second part of this HBV infection protocol was established by Gripon et al., 1993, Virology, 192: 534-540.
At the end of the incubation, the cells are washed three times with culture medium and maintained in the presence of 2% of DMSO and 5.10^−5 M of hydrocortisone hemisuccinate until they are used.
The HBs antigen was detected in the medium using the ELISA kit (Monolisa AgHBs plus®) from Biorad Laboratories. The results are expressed in pg/ml of supernatant.
The ability of the HepaRG cells to be infected was studied as a function of their degree of differentiation. Using the methods described in Examples 1 and 2, the cell differentiation programme was modified.
A first series of infection was carried out on cells continually maintained in the presence of corticoid only, then in the presence of corticoid and different concentrations of DMSO, in order to induce different stages of differentiation.
This correlation was confirmed by a series of experiments carried out on cells infected at confluence (before their differentiation) then placed under optimum conditions in order to induce their differentiation.
Finally, the effectiveness of an infection carried out on undifferentiated cells multiplying actively was compared with that on cells with arrested growth and well-differentiated.

Data set [3] concerns HepaRG cells. Nature of the data set: Toxicity of DMSO to HepaRG cells without corticoid. Type of data set: cell-based, human. The following applies: 2% of DMSO, HepaRG cells in the absence of corticoid. Here is the method: A first series of experiments was carried out in order to study the effects of the absence of the corticoid on cells having always been maintained in its presence. In FIG. 9A, the HepaRG cells at passage 13, were kept for 2 additional passages either in the continuous presence of hydrocortisone (growth: HN), or in the absence of hydrocortisone (growth: HO). They were then induced to differentiate (diff.) for 3 weeks in the absence of hydrocortisone (HO) or in the presence of hydrocortisone 5×10^−5 M (HN), and in the presence of different concentrations of DMSO.
The withdrawal of the corticoid was carried out at confluence, i.e. at the time when the cells begin their differentiation.
The cells are kept in a culture medium without corticoid and their ability to carry out differentiation is tested after 2 (FIG. 9A) and 10 passages (FIG. 9B).

The subject of data set [4] is HBV. Nature of the data set: Antiviral activity of 3TC on HBV-infected HepaRG cells, viral DNA by Amplicor-Monitor test. The following applies: day 8 to 15 after infection, vs infected non-treated control. The format is cell-based, hepatitis B virus. Here is the method:
(§1) The cells are maintained and infected according to the protocols of Examples 1 and 5.
[…] A complete replenishment of the medium is carried out every two days. The supernatants are stored at −20° C. and the cell pellets at −80° C.
The viral DNA present in the culture supernatant could be detected and quantified by the Amplicor-Monitor test (ROCHE). The results are expressed as number of viral particles/ml. For the analysis of intracellular viral DNA, the cells were separated with trypsin and stored at −80° C. The total DNA was isolated according to the protocol described previously (Zoulim et al., 1998, Drug therapy for chronic hepatitis B virus replication. J. Hepatol. 29:151-168).

Data set [5] deals with HBV. Nature of the data set: HBs antigen in culture supernatant of HBV-infected HepaRG cells treated by 3TC (ELISA). Type of data set: cell-based, hepatitis B virus. The following applies: after 8 days of treatment by 3TC, all doses. Here is the method: as §1
The antiviral treatment by 3TC is administered from the 8th day to the 15th day following the infection of the HepaRG cells, at final concentrations of 0.1 and 10 μM in the culture medium. A complete replenishment of the medium is carried out every two days. The supernatants are stored at −20° C. and the cell pellets at −80° C.
The viral antigen (HBs) was detected in the culture supernatant using the commercial ELISA test ETI-MAK-3® (SORIN).
In general terms: An ELISA detects its analyte on a solid surface through an enzyme-linked reagent.

Data set [6] deals with HCV. Nature of the data set: Sensitivity of HCV replication in infected HepaRG cells to interferon α, viral RNA by RT-PCR. Type of data set: cell-based. The following applies: 5 U.I./ml. As to the method:
These cells are incubated for 48 hours at 37° C. with the infectious source, diluted 10 times, in the culture medium devoid of FCS and optionally with PEG 8000 (Sigma) added.
The replicative forms of the intracellular viral RNAs were isolated in all the cell lysates. The cells are recovered after separation with trypsin, then the total RNA is extracted using the High Pure RNA Isolation kit (Roche). The quantity of total RNA extracted is estimated by optical density in order to standardize the different samples. The quality and homogeneity of the RNAs are examined by visualizing the ribosomic RNAs (rRNA: 28S and 18S) on a 1% agarose gel stained with ethidium bromide.
The RNAs of the viral particles are extracted from the culture supernatant using the High Pure viral RNA kit (Roche).
By retrotranscription (RT), the complementary DNA (cDNA) of the viral RNAs of positive polarity is synthesized from a specific prime hybridizing at 5′ of the region which codes for the viral capsid protein. This oligonucleotide (5′-[…]-3′), designated as SEQ ID NO:1, derived from that described by Martell et al., 1999, Journal of Clinical Microbiology, 37: 327-332 , designated C-342. The cDNA is then amplified by the “Polymerase Chain Reaction” (PCR) technique using two primers hybridizing in the 5′ non-translated region of the viral genome. The primers used are as follows: the sense oligonucleotide (5′-TGAGTGTCGTRCAGCCTCC-3′), designated as SEQ ID NO:2, and the antisense oligonucleotide (5′-[…]-3′), designated as SEQ ID NO:3, which corresponds to that conceived by Mercier et al., 1999, Journal of Virological Methods, 77 1-9, designated NCR-3. The amplification product (amplicon of 190 pb) is visualized on a 2% agarose gel stained with ethidium bromide. A marker of molecular weight of DNA (M) is also deposited in order to verify the identity of the amplicon by its size. The effectiveness of the different stages is always controlled by detecting the viral RNA present in a standard (T+), which corresponds to a diluted serum, originating from an infected patient. […]

In the case of `C[S+](C)[O-]` [DMSO], the Albumin expression result in data set [1] was “++”. Also, the α1 chain expression result in data set [1] is “+”. The γ-glutamyl transferase expression entry in data set [1] was “−/+”. Also, the HbsAg secretion was 70 pg/mL in data set [2] (DMSO 1% in differentiation medium after day 17, infection on day 15, supernatant 47 days after seeding); 214 pg/mL in data set [2] (DMSO 1% in differentiation medium after day 17, infection on day 28, supernatant 47 days after seeding); 79 pg/mL in data set [2] (DMSO 2% in differentiation medium after day 17, infection on day 15, supernatant 47 days after seeding); more than 2000 pg/mL in data set [2] (DMSO 2% in differentiation medium after day 17, infection on day 28, supernatant 47 days after seeding). Moreover, the “Toxicity of the addition of DMSO” value in data set [3] is on record as “so toxic that its use is impossible; also recorded: highly toxic”.

Regarding hydrocortisone hemisuccinate [HN], the HbsAg secretion in data set [2] (culture HN, HN after 17th day, infection D3 (growth), 47 days after seeding) was 33 pg/mL; in data set [2] (culture HN, HN after 17th day, infection D5 (growth), 47 days after seeding), 37 pg/mL; in data set [2] (culture HN, HN after 17th day, infection D10 (confluence), 47 days after seeding), 93 pg/mL; in data set [2] (culture HN, HN with 2% of DMSO after 17th day, infection D3 (growth), 47 days after seeding), 41 pg/mL; in data set [2] (culture HN, HN with 2% of DMSO after 17th day, infection D5 (growth), 47 days after seeding), 84 pg/mL; in data set [2] (culture HN, HN with 2% of DMSO after 17th day, infection D10 (confluence), 47 days after seeding) it was 171 pg/mL.

Take `CCCC(=O)[O-].[Na+]` [Sodium butyrate, sodium butyrate]: in data set [1], the Albumin expression entry is “−/+”, the “Cytokeratin 7 expression” value is “+”, the “Cytokeratin 19 expression” value is recorded as “++” and the α1 chain expression entry is “−/+”. In addition, in data set [1], the α6 chain expression result is given as “+” and the γ-glutamyl transferase expression entry was “++”.

With `Nc1ccn([C@@H]2CS[C@H](CO)O2)c(=O)n1` [3TC], the “Inhibition (quantity of viral DNA)” value in data set [4] (3TC 0.1 μM) came to 69; in data set [4] (3TC 1 μM), 98; in data set [4] (3TC 10 μM) it was 100. For the same compound, the “HBs antigen in the culture supernatant” value in data set [5] was “constant whatever the dose and equal to the non-treated control”.

On to “interferon α: antiviral cytokine (Introna®, Schering-Plough, France)”, for which the “Extracellular viral RNA, kinetics” value in data set [6] (after four days of incubation, Day 10 to Day 12) is recorded as “no extracellular viral RNA is detected”. Besides, the “Viral RNA signal in the extracellular medium” value in data set [6] (six days of treatment, 12th day after infection) is “complete disappearance of the signal”. Further, the “Drop of the intracellular viral RNA signal” value in data set [6] (six days of treatment, 12th day after infection, serum No. 4) is “more than 60%”.
